Assays:
Assay in all cases: relative viability (nuclei count vs DMSO), 5 days (fraction); higher = more cells survive
[1] = compound: CC1=C(C(=NN1)C)CC2=C(C3=C(S2)N(C(=O)N(C3=O)C)CC(C)C)C(=O)N4C[C@@H](CO4)O
How it was run: (§1)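 Lung cancer cell lines in 1536-well plates were exposed by pinning to five library-drug doses (not always all listed) √10 apart, following an overnight hold at 37 °C. MetaXpress counted Hoechst-stained nuclei from 4× images taken after 5 days without medium change. Viability is the median ratio of treated-well to vehicle-well nuclei across plates. Plates required control CV below 25% and at least one doubling.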

IDH-C35 = compound: Cc1ccccc1C(C(=O)NC1CCCCC1)N(C(=O)Cn1ccnc1C)c1cccc(F)c1 [IDH-C35]
How it was run: as §1

IDH-C35 + Bortezomib = compound: Cc1ccccc1C(C(=O)NC1CCCCC1)N(C(=O)Cn1ccnc1C)c1cccc(F)c1 [IDH-C35] + CC(C)C[C@H](NC(=O)[C@H](Cc1ccccc1)NC(=O)c1cnccn1)B(O)O [Bortezomib] (partner 0.002 µM)
How it was run: (§2)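 Lung cancer cell lines, seeded in 1536-well plates, were treated the following day by pin tool with a single drug or with five library-drug doses (not always all listed) in √10 steps on top of a fixed anchor-drug dose. Cells were fixed and nuclei stained in one step after 5 days, and nuclei were counted. Relative viability is the nuclei count for treated wells divided by that for vehicle wells, reported as medians of duplicate plates.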

[2] = compound: CC1=C(C(=NN1)C)CC2=C(C3=C(S2)N(C(=O)N(C3=O)C)CC(C)C)C(=O)N4C[C@@H](CO4)O + Cc1nc(NC(=O)N2CCC[C@H]2C(N)=O)sc1-c1ccnc(C(C)(C)C(F)(F)F)c1 [Alpelisib] (partner 2 µM)
How it was run: as §2

Cell Line	relative viability ([1]; 0.0025 µM)	relative viability ([1]; 0.007906 µM)	relative viability ([1]; 0.025 µM)	relative viability ([1]; 0.07906 µM)	relative viability ([1]; 0.25 µM)	relative viability (IDH-C35; 0.08 µM)	relative viability (IDH-C35; 0.253 µM)	relative viability (IDH-C35; 0.8 µM)	relative viability (IDH-C35; 2.53 µM)	relative viability (IDH-C35; 8 µM)	relative viability (IDH-C35 + Bortezomib; first compound 0.08 µM)	relative viability (IDH-C35 + Bortezomib; first compound 0.253 µM)	relative viability (IDH-C35 + Bortezomib; first compound 0.8 µM)	relative viability (IDH-C35 + Bortezomib; first compound 2.53 µM)	relative viability (IDH-C35 + Bortezomib; first compound 8 µM)	relative viability ([2]; first compound 0.0025 µM)	relative viability ([2]; first compound 0.007906 µM)	relative viability ([2]; first compound 0.025 µM)	relative viability ([2]; first compound 0.07906 µM)	relative viability ([2]; first compound 0.25 µM)
NCI-H1651	0.962	1.08	0.986	0.963	0.993	0.939	0.947	0.921	1	0.959	0.884	0.999	0.878	0.992	0.876	1.07	1.02	0.923	0.961	0.945
NCI-H1703	1.03	0.895	0.917	0.895	0.897	0.96	1.02	0.95	0.901	0.955	0.326	0.346	0.422	0.43	0.261	0.366	0.211	0.32	0.309	0.299
Calu-6	1.04	1.01	0.982	1.03	1.03	1.05	0.968	1.03	0.997	0.937	0.971	1	1.04	1.07	0.955	1.3	0.898	0.892	0.895	1.09
EBC-1	1.01	1.07	0.868	1.08	1.05	1.05	1.01	0.992	0.981	0.96	0.544	0.575	0.493	0.613	0.506	0.973	0.973	0.765	0.822	0.814
SW 1573	1.02	1.09	0.975	0.957	1.05	1.1	1.12	0.951	0.875	0.898	1.06	1.19	0.967	1.06	1.05	0.756	0.699	0.764	0.715	0.917
A-427	1.04	1.1	0.996	1.05	1.1	1.06	1.01	0.926	0.991	1.03	0.977	1.04	1.01	0.934	0.952	1.02	1.21	1.08	1.03	1.07
NCI-H2347	1.11	1.2	0.949	0.983	1.04	1.04	1.06	0.937	1.02	0.997	0.912	1.02	0.929	1.08	0.878	1.16	1.01	1.11	0.964	0.964
NCI-H1355	1.08	1.03	0.994	0.993	0.952	0.978	0.971	0.961	0.915	0.944	1.21	1.15	1.16	1.17	1.05	0.937	0.887	0.878	0.893	0.74
PC-3 [JPC-3]	1.1	1.05	1.01	1.04	1.07	1.04	1	1.04	1.08	1.04	0.854	0.868	0.849	0.856	0.813	1.02	1.03	1	1.01	1.06
NCI-H2228	0.925	1.24	1.13	0.907	1.08	0.87	0.935	0.968	1.01	0.935	0.968	0.857	0.898	1.09	0.818	0.911	0.673	1.01	0.722	0.9
HOP-62	0.962	0.976	0.953	0.977	1.17	1.03	1.03	0.957	0.81	0.964	0.725	0.77	0.73	–	0.798	0.959	1.15	1.01	0.862	0.696
HARA	1.03	1.05	1.01	1.02	1	1	0.949	0.915	1.03	0.931	1.18	1.04	1.13	1.15	1.05	1.01	0.922	0.837	0.768	0.801
NCI-H838	0.992	0.979	0.876	0.84	0.856	1.07	0.935	0.978	1.01	0.981	1.06	0.758	0.668	1.1	1.08	1.05	1.05	0.989	0.967	0.974
NCI-H1755	1.03	1	1.03	0.989	1.03	1.05	0.961	0.968	1.03	1.01	0.885	1.04	0.881	0.971	0.933	0.963	1.03	0.898	0.849	1.02
HCC-78	1.08	1.14	0.845	0.91	0.832	0.925	0.979	0.896	0.998	0.928	0.581	0.521	0.587	0.563	0.446	0.409	0.343	0.315	0.319	0.299
IA-LM	0.945	0.998	0.96	1.02	1.07	0.947	1.02	0.858	0.887	0.999	0.855	0.87	0.844	0.924	0.769	0.832	0.812	0.858	0.749	0.991

Cell Line	relative viability ([1]; 0.0025 µM)	relative viability ([1]; 0.007906 µM)	relative viability ([1]; 0.025 µM)	relative viability ([1]; 0.07906 µM)	relative viability ([1]; 0.25 µM)	relative viability (IDH-C35; 0.08 µM)	relative viability (IDH-C35; 0.253 µM)	relative viability (IDH-C35; 0.8 µM)	relative viability (IDH-C35; 2.53 µM)	relative viability (IDH-C35; 8 µM)	relative viability (IDH-C35 + Bortezomib; first compound 0.08 µM)	relative viability (IDH-C35 + Bortezomib; first compound 0.253 µM)	relative viability (IDH-C35 + Bortezomib; first compound 0.8 µM)	relative viability (IDH-C35 + Bortezomib; first compound 2.53 µM)	relative viability (IDH-C35 + Bortezomib; first compound 8 µM)	relative viability ([2]; first compound 0.0025 µM)	relative viability ([2]; first compound 0.007906 µM)	relative viability ([2]; first compound 0.025 µM)	relative viability ([2]; first compound 0.07906 µM)	relative viability ([2]; first compound 0.25 µM)
NCI-H322M	0.98	1.02	0.948	1.02	0.919	0.92	0.973	0.933	0.963	1	1.22	1.17	1.15	1.21	1.27	0.769	0.793	0.866	0.831	0.748
NCI-H3122	1.01	0.971	0.99	1.01	1.03	0.999	1.02	1.01	0.985	0.973	1.1	1.01	0.985	1.02	1.02	0.813	0.816	0.788	0.783	0.706
COR-L23	0.965	1.08	0.919	0.933	0.976	1.1	1.08	1.01	0.995	0.978	0.927	0.995	1.01	0.983	0.909	0.782	0.709	0.59	0.759	0.739
NCI-H2087	1.05	1.13	0.951	0.92	1.26	1.2	1.07	0.945	0.898	0.931	0.846	0.959	0.805	0.863	0.654	0.952	1.03	1.12	1.31	1.18
LC-2-ad	0.982	0.93	0.956	1.04	1.04	0.993	1	0.966	0.701	0.898	1.01	1.03	1.01	1.04	0.935	0.985	0.85	0.842	0.897	0.921
NCI-H1915	1.04	1.03	0.993	0.991	1.03	0.993	0.975	1.01	0.952	0.913	0.939	0.977	0.963	0.961	0.995	1.09	1.11	1.1	1.15	1.07
NCI-H2023	1.03	1.09	0.934	0.976	1.03	0.981	1.08	0.959	0.981	0.994	0.998	1.13	1.01	0.349	0.911	0.621	0.635	0.593	0.58	0.622
COR-L 105	0.952	0.976	0.897	0.897	1.02	0.897	0.921	0.926	0.863	0.91	0.902	0.943	0.752	0.66	0.489	1.03	0.896	1.12	1.01	0.999
RERF-LC-KJ	1.01	1.07	0.985	0.98	1.06	0.962	0.929	1.03	1.01	0.943	1.09	1.08	1.1	1.2	1.19	0.977	0.939	0.92	0.775	0.964
LXF-289	1.02	1.02	0.975	0.971	1.02	1.02	1	1.02	0.99	0.997	0.984	1	0.941	0.999	0.955	1.01	1.01	1.03	1.01	1.07
PC-14	1.06	1.06	0.889	1.12	1.16	1.04	0.996	1	0.997	0.937	0.983	0.897	0.792	0.834	0.767	1.05	0.877	0.886	0.974	0.975
NCI-H650	0.987	0.91	0.869	0.919	1.06	0.894	1.2	0.981	–	0.962	0.774	0.93	0.755	–	0.861	1.28	1.11	0.972	1	1.18
NCI-H1666	1.09	0.97	1.01	0.983	1.02	1	0.956	0.965	1.06	1.04	0.769	0.881	0.914	0.872	0.691	1.06	1.01	1.02	1.13	0.953
NCI-H2085	0.992	0.954	0.939	0.981	0.793	1.01	1	0.957	1.09	0.969	1.02	1.05	0.981	0.982	0.871	0.989	0.975	0.831	0.855	0.873
NCI-H1734	1.01	1.16	1.03	0.889	0.962	1.06	1.04	1	0.879	0.995	1.06	1.17	0.85	0.892	0.914	0.692	0.771	0.667	0.757	0.677
